Reference: article PMC5651844, “YEATS2 links histone acetylation to tumorigenesis of non-small cell lung cancer” (Nature Communications, 2017)
“And” between values parts separate entries of the source, which are not always exact repeats. Identical values can stand only once. “Also recorded” adds a separate entry of the source. Ends that are not written are not given here.

Legend:
[1] = target: T1, YEATS2 YEATS domain (aa 201–332), wild type (Homo sapiens, UniProt Q9ULM3); assay: Isothermal titration calorimetry (ITC), wild-type YEATS domain; type: binding; conditions: for binding in ITC, in words: WT YEATS2 YEATS domain
T1 construct: encompassing residues 201–332 of human YEATS2; 10×His-SUMO (N, cleaved yes); made in house; host or cells: Escherichia coli BL21 (DE3)
T1 sequence (Q9ULM3 201-332): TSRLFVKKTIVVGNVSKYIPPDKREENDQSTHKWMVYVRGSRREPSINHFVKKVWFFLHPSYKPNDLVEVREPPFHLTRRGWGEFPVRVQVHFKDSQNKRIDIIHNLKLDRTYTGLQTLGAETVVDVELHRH
Experimental: The YEATS2 domain encompassing residues 201–332 of human YEATS2 was cloned into a pSUMOH10 vector (an in house modified vector based on pET28b) containing an N-terminal 10×His-SUMO tag. The recombinant YEATS2_201–332 was overexpressed in Escherichia coli BL21 (DE3). After overnight induction by 0.4 mM isopropyl β-D-thiogalactoside at 16 °C in TB medium, cells were collected and suspended in buffer: 20 mM Tris, pH 7.5, 0.5 M sodium citrate, 5% glycerol, 1 mM phenylmethylsulfonyl fluoride, and 20 mM imidazole. After cell lysis and centrifugation, the recombinant protein was purified to homogeneity over HisTrap, and the 10xHis-SUMO tag was cleaved by ULP1 overnight at 4 °C then removed by reloaded onto the HisTrap column. The free YEATS2_201–332 protein was finally polished by size-exclusion chromatography on a Superdex G75 column (GE Healthcare) in elution buffer: 20 mM Tris, pH 7.5, 0.5 M sodium citrate, 5% glycerol, and 2 mM β-mercaptoethanol. All YEATS2_201–332 mutants were purified in essentially the same procedures as the wild-type protein. All mutant proteins were expressed and purified essentially the same as WT YEATS2 YEATS. […] Cells were pelleted via centrifugation, flash-frozen in liquid nitrogen, and lysed by sonication. Cell lysate was centrifuged, and the supernatant was incubated with glutathione Sepharose 4B beads (GE Healthcare). The GST tag was cleaved with Prescission protease.
All calorimetric experiments of the wild type or mutant YEATS domain proteins were conducted at 15 °C using a MicroCal iTC200 instrument (GE Healthcare). The YEATS2_201–332 samples were dialyzed in the following buffer: 20 mM Tris 7.5, 0.5 M sodium citrate, 5% glycerol, and 2 mM β-mercaptoethanol. Protein concentration was determined by absorbance spectroscopy at 280 nm. Peptides (>95% purity) were quantified by weighing on a large scale and then aliquoted and freeze-dried for individual use. Acquired calorimetric titration curves were analyzed using Origin 7.0 (OriginLab) using the “One Set of Binding Sites” fitting model.

GST-YEATS2 YEATS domain = assay: Histone peptide pulldown, western blot; type: binding, human; conditions: 1 µg biotinylated peptide, 1–2 µg GST-fused protein, 4 °C overnight, streptavidin beads
Experimental: An aliquot of 1 µg of biotinylated histone peptides with different modifications were incubated with 1–2 µg of GST-fused proteins in binding buffer (50 mM Tris-HCl 7.5, 250 mM NaCl, 0.1% NP-40, 1 mM phenylmethyl sulphonyl fluoride (PMSF)) at 4 °C overnight. Streptavidin beads (Amersham) were added to the mixture, and the mixture was incubated for 1 h with rotation. The beads were then washed three times and analyzed using SDS-PAGE and western blotting. For GST pulldown, 2 µg protein were incubated with 10 µg of calf thymus total histones (Worthington) in binding buffer (50 mM Tris-HCl 7.5, 1 M NaCl, 1% NP-40, 0.5 mM EDTA, 1 mM PMSF plus protease inhibitors (Roche)) at 4 °C overnight, followed by an additional 1 h Glutathione Sepharose beads (Amersham) incubation. The beads were then washed five times and analyzed using SDS-PAGE and western blotting.

[2] = system: 15N-labeled YEATS domain of YEATS2 (aa 201–350); assay: NMR titration, 1H,15N HSQC; type: binding, human; conditions: 0.1 mM 15N-labeled YEATS domain, 1× PBS pH 6.8, 100 mM KCl, 298 K, increasing peptide (H3K27ac21–31 or H3K9ac1–12)
Experimental: The YEATS2 domain encompassing residues 201–332 of human YEATS2 was cloned into a pSUMOH10 vector (an in house modified vector based on pET28b) containing an N-terminal 10×His-SUMO tag. The recombinant YEATS2_201–332 was overexpressed in Escherichia coli BL21 (DE3). After overnight induction by 0.4 mM isopropyl β-D-thiogalactoside at 16 °C in TB medium, cells were collected and suspended in buffer: 20 mM Tris, pH 7.5, 0.5 M sodium citrate, 5% glycerol, 1 mM phenylmethylsulfonyl fluoride, and 20 mM imidazole. After cell lysis and centrifugation, the recombinant protein was purified to homogeneity over HisTrap, and the 10xHis-SUMO tag was cleaved by ULP1 overnight at 4 °C then removed by reloaded onto the HisTrap column. The free YEATS2_201–332 protein was finally polished by size-exclusion chromatography on a Superdex G75 column (GE Healthcare) in elution buffer: 20 mM Tris, pH 7.5, 0.5 M sodium citrate, 5% glycerol, and 2 mM β-mercaptoethanol. All YEATS2_201–332 mutants were purified in essentially the same procedures as the wild-type protein. All mutant proteins were expressed and purified essentially the same as WT YEATS2 YEATS. For NMR titrations, the YEATS domain (aa 201–350) of YEATS2 was expressed in BL21(DE3) RIL cells as a GST-fusion protein in minimal media supplemented with ^15NH4Cl (Sigma). […]

AF9 YEATS domain = conditions: ref Li et al., 2014; cited from earlier work
ENL YEATS domain = conditions: ref Wan et al., 2017; cited from earlier work

| Substance | binding in ITC, in words [1] | Kd ([1]; main text and Fig. 3e, ITC at 15 °C, N.D. = not detected, read-out: dissociation constant (KD)) | binding in histone peptide pulldown (GST-YEATS2 YEATS domain) | chemical shift perturbations in 1H,15N HSQC spectra [2] | Kd (AF9 YEATS domain) | Kd (ENL YEATS domain) | binding in ITC, in words ([1]; listed as H3K14ac) |
| --- | --- | --- | --- | --- | --- | --- | --- |
| H3K27ac: K27-acetylated H3 peptide: ITC text = H3 15–39K27ac; NMR = H3K27ac21–31; pulldown = biotinylated peptide; cited AF9/ENL peptides unspecified (ATKAARK(Ac)SAPA) | best binding substrate | 50 µM | bound specifically | global chemical shift perturbations | ~7 µM and 7 µM | 30 µM |  |
| TARKSTGGK(ac)A [H36-15K14ac, histone H3 peptide, residues 6-15, acetylated at K14] |  |  |  |  |  |  | weak or no binding; also recorded: no detectable binding |
